Assay results published in patent publication US7524866B2, “Prevention and treatment of androgen—deprivation induced osteoporosis” (GTx, Inc., priority 2001, dated 2009).

Columns and labels:
[1] = test system: C-telopeptide of rat collagen I in serum; test: Serum RatLaps ELISA, C-telopeptide of type I collagen, orchidectomy model (Example 3); assay type: in vivo; conditions: orchidectomized rats, 15 and 30 days; Toremifene 5 mg/kg/day, 17-β-estradiol 0.5 mg/kg/day s.c.; FIG. 1
Description: Male Sprague-Dawley rats (Harlan Sprague Dawley) were placed on study at 14-weeks of age. They were randomized and divided into five treatment groups: vehicle only (placebo, or P) after sham operation, vehicle only after orchidectomy (Orx), Toremifene (5 mg/kg/day) after sham-operation, and Toremifene after orchidectomy, and 17-β-estradiol (0.5 mg/kg/day) after orchidectomy. Test articles were delivered subcutaneously by Alzet pumps. Pumps were re-implanted every 30 days until the end of the study. Five to six animals from each group were sacrificed after 60 and 120 days of treatment, and femurs were harvested, stripped of soft tissue and muscle, and stored individually in polypropylene vials at −80° C. until analysis of bone density and mechanical strength testing. Additionally, serum was collected on days 15, 30, 60, 90 and 120, to measure markers of bone metabolism and to perform serum chemistry. […]
The assay was performed in duplicates, each 20 ul of serum as well as standards and control. […] After washing the strips 100 ul of the Chromogenic Substrate Solution was added to each well, and after 15 min the reaction was stopped and the absorbance was measured at 450 nm. The means of the duplicate absorbance determination were calculated, and a standard curve was constructed using 4-parametric logistic curve fit. Sample RatLaps concentrations were determined by interpolation.

[2] = test system: orchidectomized rats (ORX); test: Ex vivo DXA of the femur (BMC, BA, BMD) (Example 4); assay type: in vivo, rat; conditions: for Distal femur Bone Area / Distal femur Bone Mineral Content / Distal femur Bone Mineral Density / Midshaft femur Bone Area / Midshaft femur Bone Mineral Content / Midshaft femur Bone Mineral Density / Proximal femur Bone Area / Proximal femur Bone Mineral Content / Proximal femur Bone Mineral Density / Whole femur Bone Area / Whole femur Bone Mineral Content / Whole femur Bone Mineral Density: ORX rats, 6 wks, mean; for bone mass of the whole femur (DXA): 6 weeks of treatment; for loss in bone mineral density at the proximal femur (DXA): 10 mg/kg/d Tor, E 0.2 mg/kg/d; for bone density at the distal femur (DXA): 10 mg/kg/d toremifene, E 0.2 mg/kg/d (p<0.05 vs. Orx+Vehicle for E)
Description: (§1) Eight month-old male Sprague Dawley rats were either sham-operated (SHAM) or orchidectomized (ORX). Treatment began immediately following surgery. The treatment groups were as described in Table 5.
Ex vivo DXA analysis was performed on the vertebra (L5) using a PIXImus instrument and associated animal research software (Lunar Corporation, Madison, Wis.). Bone mineral content (BMC), bone area (BA) and bone mineral density (BMD) are reported. Ex vivo DXA analysis was performed on the femur using a pDXA Sabre and associated animal research software (Norland Medical Systems, Inc., Fort Atkinson, Wis.). BMC, BA and BMD are reported for four regions of interest: whole femur, 25% distal femur, 25% proximal femur and 50% of midshaft femur.

[3] = test system: rat Osteocalcin in serum; test: Rat Osteocalcin EIA in serum, orchidectomy model (Example 3); assay type: in vivo; conditions: castrated rats
Description: (§2) Male Sprague-Dawley rats (Harlan Sprague Dawley) were placed on study at 14-weeks of age. They were randomized and divided into five treatment groups: vehicle only (placebo, or P) after sham operation, vehicle only after orchidectomy (Orx), Toremifene (5 mg/kg/day) after sham-operation, and Toremifene after orchidectomy, and 17-β-estradiol (0.5 mg/kg/day) after orchidectomy. Test articles were delivered subcutaneously by Alzet pumps. Pumps were re-implanted every 30 days until the end of the study. Five to six animals from each group were sacrificed after 60 and 120 days of treatment, and femurs were harvested, stripped of soft tissue and muscle, and stored individually in polypropylene vials at −80° C. until analysis of bone density and mechanical strength testing. Additionally, serum was collected on days 15, 30, 60, 90 and 120, to measure markers of bone metabolism and to perform serum chemistry.
After collection, serum was divided into 3 aliquots and stored at −80° C. until analysis. 125 ul for serum biochemistry performed by AniLytics, Gaithersburg, Md. (Bone-Specific Alkaline Phosphatase, Calcium, Phosphorus, Creatinine and Bilirubin). 100 ul for serum Rat Osteocalcin ELISA and Serum RatLaps ELISA for C-terminal telopeptides determination. The rest of the collected serum was left for repeated test if necessary.
Rat Osteocalcin EIA, Biomedical Technologies, MA
This assay is specific for rat Osteocalcin and both carboxylated and decarboxylated rat Osteocalcin are recognized. A monoclonal antibody against the N-terminal region of Osteocalcin is bound to the polystyrene wells. The assay was performed in duplicates. 100 ul of standards, control and 1 to 20 diluted samples were added to appropriate wells and incubated overnight at 4 C. After washing the strips, 100 ul of Goat polyclonal antibody of high specificity for C-terminus of rat Osteocalcin was added and incubated 60 min at 37 C. […] The reaction was stopped, and the absorbance was measured at 450 nm. […] Sample osteocalcin concentrations were determined by interpolation.

[4] = test system: RatLaps (CTX) in rat serum; test: CTX (RatLaps) in rat serum (Example 4); assay type: in vivo; conditions: Orx rats
Description: The assay was performed in duplicates, each 20 ul of serum as well as standards and control. Briefly, 100 ul of Biotinylated RatLaps Antigen was incubated 30 min in each well, strips were washed and 20 ul of Standard, Control and unknown samples were added to appropriate wells, followed by 100 ul of primary antibody (polyclonal Ab raised against a synthetic peptide EKSQDGGR specific for a part of the C-terminal telopeptide alpha 1 chain of rat type I collagen). After overnight incubation at 4 C., the wells were washed and 100 ul of Peroxidase conjugated Goat anti-Rabbit IgG Antibody was added to each well and incubated 60 min. After washing the strips 100 ul of the Chromogenic Substrate Solution was added to each well, and after 15 min the reaction was stopped and the absorbance was measured at 450 nm. The means of the duplicate absorbance determination were calculated, and a standard curve was constructed using 4-parametric logistic curve fit. Sample RatLaps concentrations were determined by interpolation.
as §1

[5] = test system: orchidectomized (Orx/Cx) male Sprague-Dawley rats; test: Distal right femur cancellous pQCT (Example 3); assay type: in vivo, rat; conditions: Toremifene 5 mg/kg/day; for cancellous bone mineral content and density (Orx-induced decrease of 34%): Orx rats, 17-β-Estradiol 0.5 mg/kg/day s.c.; for Total Bone Area / Total Bone Content / Total Bone Density / Trabecular Area / Trabecular Content / Trabecular Density: castrated (Cx) rats, distal right femur pQCT, mean, n=5, 17-β-estradiol 0.5 mg/kg/day s.c.
Description: as §2
Peripheral Quantitative Computed Tomography (pQCT)
Right femurs were subjected to pQCT analysis using a Stratec XCT-RM with associated software (Stratec Medizintechnik GmbH, Pforzheim, Germany. Software version 5.40 C). Femurs were scanned at two sites, 20% and 50% of the total femoral length measured from the distal femur. The position was verified using scout views, and scan results from two 0.5 mm slices perpendicular to the long axis of the femur shaft were recorded.

[6] = Toremifene 5 mg/kg/d, Estradiol 0.2 mg/kg/d
[7] = up to 120 days, Toremifene 5 mg/kg/day, 17-β-estradiol 0.5 mg/kg/day s.c., FIG. 2B
[8] = 28 days, E 0.2 mg/kg/d, 10 mg Tor
[9] = 42 days, E 0.2 mg/kg/d, 10 mg-Tor

What does the source list for C[C@]12CC[C@@H]3c4ccc(O)cc4CC[C@H]3[C@@H]1CC[C@@H]2O [17-β-Estradiol]?
C-telopeptide levels in serum [1]: reduced the C-telopeptide levels to or below control values; Distal femur Bone Area [2, 6]: 0.674 cm^2; Distal femur Bone Mineral Content [2, 6]: 0.162 gm; Distal femur Bone Mineral Density [2, 6]: 0.240 gm/cm^2; Midshaft femur Bone Area [2, 6]: 1.128 cm^2; Midshaft femur Bone Mineral Content [2, 6]: 0.281 gm; Midshaft femur Bone Mineral Density [2, 6]: 0.250 gm/cm^2; Proximal femur Bone Area [2, 6]: 0.685 cm^2; Proximal femur Bone Mineral Content [2, 6]: 0.167 gm; Proximal femur Bone Mineral Density [2, 6]: 0.245 gm/cm^2; Whole femur Bone Area [2, 6]: 2.480 cm^2; Whole femur Bone Mineral Content [2, 6]: 0.609 gm; Whole femur Bone Mineral Density [2, 6]: 0.246 gm/cm^2; bone mineral density at the midshaft femur (DXA) ([2]; Orx rats, 6 weeks): did not show any effect; bone mass of the whole femur (DXA) ([2]; Orx rats): did not exhibit any significant effect; loss in bone mineral density at the proximal femur (DXA) ([2]; Orx rats, 6 weeks): somewhat helpful in preventing this loss; bone density at the distal femur (DXA) ([2]; Orx rats, 6 weeks): significantly improved overall density; serum osteocalcin levels [3, 7]: significantly reduce osteocalcin levels to below that of intact control rats; CTX levels in serum ([4]; 10 days): Neither E nor Tor had any effect on CTX; CTX levels in serum [4, 8]: reduced the CTX levels; CTX levels in serum [4, 9]: CTX levels did not change further; cancellous bone mineral content and density (Orx-induced decrease of 34%) [5]: fully prevent this cancellous bone loss; Total Bone Area [5]: 15.95 mm^2; Total Bone Content [5]: 11.01 mg/mm; Total Bone Density [5]: 690.74 mg/mL; Trabecular Area [5]: 7.17 mm^2; Trabecular Content [5]: 1.52 mg/mm; Trabecular Density [5]: 210.28 mg/mL

With CN(C)CCOc1ccc(/C(=C(/CCCl)c2ccccc2)c2ccccc2)cc1 [Toremifene] as the compound, how does the “C-telopeptide levels in serum” value [1] read?
Its value is “reduced the C-telopeptide levels to or below control values”.

What about the “Distal femur Bone Area” value [2, 6] of the same compound?
Its value is 0.649 cm^2.

What about the “Distal femur Bone Mineral Content” value [2, 6] of the same compound?
The value was 0.145 gm.

What about the “Distal femur Bone Mineral Density” value [2, 6] of the same compound?
Its value is 0.224 gm/cm^2.

What about the “Midshaft femur Bone Area” value [2, 6] of the same compound?
The value was 1.086 cm^2.

And the “Midshaft femur Bone Mineral Content” value [2, 6]?
The value was 0.271 gm.

What about the “Midshaft femur Bone Mineral Density” value [2, 6] of the same compound?
Its value is 0.249 gm/cm^2.

What about the “Proximal femur Bone Area” value [2, 6] of the same compound?
The value was 0.658 cm^2.

What about the “Proximal femur Bone Mineral Content” value [2, 6] of the same compound?
The value was 0.154 gm.

What about the “Proximal femur Bone Mineral Density” value [2, 6] of the same compound?
The value was 0.234 gm/cm^2.

And the “Whole femur Bone Area” value [2, 6]?
Its value is 2.389 cm^2.

What about the “Whole femur Bone Mineral Content” value [2, 6] of the same compound?
Its value is 0.570 gm.

What about the “Whole femur Bone Mineral Density” value [2, 6] of the same compound?
Its value is 0.238 gm/cm^2.

And the “Distal femur Bone Area” value ([2]; Toremifene 10 mg/kg/d)?
The value was 0.659 cm^2.

What about the “Distal femur Bone Mineral Content” value ([2]; Toremifene 10 mg/kg/d) of the same compound?
Its value is 0.152 gm.

And the “Distal femur Bone Mineral Density” value ([2]; Toremifene 10 mg/kg/d)?
The value was 0.230 gm/cm^2.

What about the “Midshaft femur Bone Area” value ([2]; Toremifene 10 mg/kg/d) of the same compound?
Its value is 1.094 cm^2.

And the “Midshaft femur Bone Mineral Content” value ([2]; Toremifene 10 mg/kg/d)?
Its value is 0.286 gm.

And the “Midshaft femur Bone Mineral Density” value ([2]; Toremifene 10 mg/kg/d)?
Its value is 0.261 gm/cm^2.

And the “Proximal femur Bone Area” value ([2]; Toremifene 10 mg/kg/d)?
The value was 0.672 cm^2.

And the “Proximal femur Bone Mineral Content” value ([2]; Toremifene 10 mg/kg/d)?
Its value is 0.164 gm.

What about the “Proximal femur Bone Mineral Density” value ([2]; Toremifene 10 mg/kg/d) of the same compound?
Its value is 0.244 gm/cm^2.

And the “Whole femur Bone Area” value ([2]; Toremifene 10 mg/kg/d)?
Its value is 2.420 cm^2.

And the “Whole femur Bone Mineral Content” value ([2]; Toremifene 10 mg/kg/d)?
The value was 0.601 gm.

And the “Whole femur Bone Mineral Density” value ([2]; Toremifene 10 mg/kg/d)?
Its value is 0.248 gm/cm^2.

What about the “bone mineral density at the midshaft femur (DXA)” value ([2]; Orx rats, 6 weeks) of the same compound?
Its value is “did not show any effect”.

And the “bone mass of the whole femur (DXA)” value ([2]; Orx rats)?
Its value is “did not exhibit any significant effect”.

What about the “loss in bone mineral density at the proximal femur, as in distal femur (DXA)” value ([2]; Orx rats, 6 weeks, 5 mg/kg/d Tor) of the same compound?
The value was “ineffective”.

And the “loss in bone mineral density at the proximal femur (DXA)” value ([2]; Orx rats, 6 weeks)?
The value was “somewhat helpful in preventing this loss”.

And the “bone density at the distal femur (DXA)” value ([2]; Orx rats, 6 weeks)?
Its value is “prevented Orx-related loss of bone density”.

And the serum osteocalcin levels ([3]; 15 days (p<0.05) and 30 days (p<0.02), Toremifene 5 mg/kg/day s.c., FIG. 2A)?
Its serum osteocalcin levels is “significantly reduced the osteocalcin levels in castrated animals to intact control levels”.

And the serum osteocalcin levels [3, 7]?
The serum osteocalcin levels was “significantly reduce osteocalcin levels to below that of intact control rats”.

And the “CTX levels in serum” value ([4]; 10 days)?
The value was “Neither E nor Tor had any effect on CTX”.

What about the “CTX levels in serum” value [4, 8] of the same compound?
The value was “reduced the CTX levels”.

What about the “CTX levels in serum” value [4, 9] of the same compound?
The value was “significantly lower CTX levels”.

What about the “effect on CTX” value ([4]; 5 mg Tor) of the same compound?
The value was “not uniform and cannot be interpreted”.

And the “cancellous bone mineral content and density (Orx-induced decrease of 34%)” value [5]?
Its value is “partially prevented this decrease”.

And the “Total Bone Area” value [5]?
Its value is 15.96 mm^2.

And the “Total Bone Content” value [5]?
The value was 10.69 mg/mm.

What about the “Total Bone Density” value [5] of the same compound?
The value was 669.74 mg/mL.

And the “Trabecular Area” value [5]?
The value was 7.18 mm^2.

What about the “Trabecular Content” value [5] of the same compound?
The value was 1.13 mg/mm.

What about the “Trabecular Density” value [5] of the same compound?
Its value is 157.56 mg/mL.
